Laboratory results taken from paper PMC9964323, “New Titanocene (IV) Dicarboxylates with Potential Cytotoxicity: Synthesis, Structure, Stability and Electrochemistry” (International Journal of Molecular Sciences, 2023).
“Also recorded” adds a separate entry of the source.

Tests used:
[1] = Stability in aqueous media (hydrolysis followed by optical absorption at 330 nm); format: physicochemical; details: 0.4 mM, 10% DMSO 90% water
From the text: The decrease in the concentration of the coordination compound was estimated from the decrease in the optical absorption at a wavelength of 330 nm. We considered it inappropriate to use the optical absorption maximum in the range of 230–300 nm for similar purposes because the absorption of the initial coordination compound, free carboxylate-containing ligands, and cyclopentadiene may overlap in this region.
Stability in aqueous media was studied by recording the full optical absorption spectra of solutions of the studied titanocene derivatives with an initial concentration of 0.4 mM in the solvent system (10% DMSO 90% water) at different time intervals. The change in the concentration of the studied compound was evaluated by the decrease in optical absorption at a wavelength of 330 nm. Full absorption spectra of studied compounds are presented as Figure S7 in the Supplementary Materials.

[2] = Cyclic voltammetry (reduction potentials); format: physicochemical; details: for Ered, first reduction potential: first value of cell; for Ered, first reduction potential / Ered, second reduction potential: DMF, 0.05 M Bu4NClO4, glass-carbon electrode, vs Ag/AgCl/KCl (sat.), 100 mV/s, C = 1 × 10^−1 mol L^−1; for Ered, second reduction potential: second value of cell
Method: It was shown that, as expected, the reduction potentials of Ti (IV) for all compounds depend on the structure of the carboxylate-containing ligand, in particular, the presence of donor and acceptor substituents in the ligand benzene ring (Table 3).
Cyclic Voltammetry experiments were conducted using an IPC Pro M potentiostat (Russia) with cyclic voltammetry (CV) and rotating disk electrode (RDE) techniques. Glass-carbon (d = 2 mm) disks were used as the working electrodes, 0.05 M Bu4NClO4 solution in DMF served as the supporting electrolyte, and Ag/AgCl/KCl (sat.) was used as the reference electrode. The potential scan rates were 100 mV/s. Samples were dissolved in the predeaerated solvent.

[3] = system: metastatic breast and colon tumors; details: phase II clinical trials, dose of 240 mg/m^2; cited from earlier work
[4] = system: adenocarcinoma of the lung, breast, and gastrointestinal tract; parameters: method as in PMID 111586, PMID 7988618; details: cited from earlier work
[5] = system: platinum-resistant cell lines; parameters: method as in PMID 8499130; details: cited from earlier work
[6] = parameters: method as in PMID 9704729, PMID 9829732; details: phase I clinical trials; cited from earlier work
[7] = system: Ehrlich ascites carcinoma; parameters: method as in PMID 111586; details: cited from earlier work

| Compound | hydrolysis rate / stability in aqueous media [1] | Ered, first reduction potential [2] [V] | Ered, second reduction potential [2] [V] | further results |
| --- | --- | --- | --- | --- |
| O=C([O-])c1c(F)c(F)c(F)c(F)c1F.O=C([O-])c1c(F)c(F)c(F)c(F)c1F.[Ti+4].c1cc[cH-]c1.c1cc[cH-]c1 [2e, bis(η^5-cyclopentadienyl)bis(pentafluorobenzoato)titanium(IV)] | hydrolyzed more slowly than compound 2b; also recorded: slower | −0.57 | −1.81 | half-life time in water [1]: approximately 3 h |
| O=C([O-])c1cccc(F)c1.O=C([O-])c1cccc(F)c1.[Ti+4].c1cc[cH-]c1.c1cc[cH-]c1 [2d, bis(η^5-cyclopentadienyl)bis(3-fluorobenzoato)titanium(IV)] | – | −0.79 | −2.05 | – |
| O=C([O-])c1ccccc1.O=C([O-])c1ccccc1.[Ti+4].c1cc[cH-]c1.c1cc[cH-]c1 [2a, bis(η^5-cyclopentadienyl)bis(benzoato)titanium(IV)] | – | −0.85 | −2.17 | – |
| [Cl-].[Cl-].[Ti+4].c1cc[cH-]c1.c1cc[cH-]c1 [Cp2TiCl2, Titanocene dichloride] | lower stability in aqueous media compared to the carboxylate-containing analogues | −0.62 | −1.85 | therapeutic effect [3]: did not show a therapeutic effect; cytotoxicity [4]: pronounced cytotoxicity; cytotoxicity [5]: pronounced cytotoxicity; dose-dependent side effects [6]: mild nephrotoxicity, fatigue, and bilierubinimia; cure ([7]; Ehrlich ascites carcinoma inoculated into mice): 80%; side effects associated with drug toxicity ([7]; Ehrlich ascites carcinoma inoculated into xenograft mice): no noticeable side effects |
| bis(η^5-cyclopentadienyl)salicylatotitanium(IV) [2g] | Hydrolysis proceeds slowly | −0.90 | – | Reversibility of reduction ([2]; CV in DMF): reversibly reduced and oxidized and rev |
| CC(=O)Oc1ccccc1C(=O)[O-].CC(=O)Oc1ccccc1C(=O)[O-].[Ti+4].c1cc[cH-]c1.c1cc[cH-]c1 [2f, bis(η^5-cyclopentadienyl)bis(2-acetoxybenzoato)titanium(IV)] | – | −0.81 | −2.11 | – |
| bis(η^5-cyclopentadienyl)bis(4-benzoxybenzoato)titanium(IV) [2b] | – | −0.88 | −2.21 | half-life time in water [1]: approximately 3 h |
| [N-]=[N+]=Nc1ccc(C(=O)[O-])cc1.[N-]=[N+]=Nc1ccc(C(=O)[O-])cc1.[Ti+4].c1cc[cH-]c1.c1cc[cH-]c1 [2c, bis(η^5-cyclopentadienyl)bis(4-azidobenzoato)titanium(IV)] | – | −0.78 | −2.01 | – |
